What was measured:
[1] = biological target: COX-1 (Homo sapiens, UniProt P23219); assay: COX-1 enzyme activity in human whole blood (A23187 stimulated, thromboxane B2 EIA); type: cell-based; set-up: Human blood (≈50 mL) from male or female donors who had not received any aspirin or NSAIDs for 14 days; endogenous in cells; host or cells: human whole blood from donors; settings: test compound at 100 μM
[2] = biological target: T1, COX-2 (Homo sapiens, UniProt P35354); assay: Human COX-2 enzyme activity (COX Inhibitor Screening Assay, prostaglandin EIA); type: biochemical; set-up: purchased Cayman Chemical; settings: test compound at 10 μM
T1 sequence (P35354 18-604): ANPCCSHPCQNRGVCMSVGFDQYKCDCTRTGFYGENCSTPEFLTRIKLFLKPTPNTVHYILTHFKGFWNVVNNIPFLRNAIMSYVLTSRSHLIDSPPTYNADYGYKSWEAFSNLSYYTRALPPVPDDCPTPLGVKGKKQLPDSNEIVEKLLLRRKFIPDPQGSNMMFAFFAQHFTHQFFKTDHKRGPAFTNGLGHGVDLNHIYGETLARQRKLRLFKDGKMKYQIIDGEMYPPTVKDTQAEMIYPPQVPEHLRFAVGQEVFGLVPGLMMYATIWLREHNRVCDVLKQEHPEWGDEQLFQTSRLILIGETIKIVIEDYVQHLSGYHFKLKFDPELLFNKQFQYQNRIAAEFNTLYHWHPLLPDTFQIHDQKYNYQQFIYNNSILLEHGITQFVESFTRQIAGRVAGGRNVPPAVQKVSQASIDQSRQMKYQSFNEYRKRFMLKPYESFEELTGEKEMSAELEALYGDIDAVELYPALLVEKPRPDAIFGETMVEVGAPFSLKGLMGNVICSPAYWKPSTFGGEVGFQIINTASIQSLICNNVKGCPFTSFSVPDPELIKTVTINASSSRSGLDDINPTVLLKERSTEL
Experimental: The human COX-1 and COX-2 enzyme activities and the measurement of the prostaglandin products synthesized were performed using the COX Inhibitor Screening Assay (Cayman Chemical, Ann Arbor, Mich.), which also contained the Prostaglandin Screening EIA Kit, used for prostaglandin quantification). The test compounds were dissolved at 50 times the highest final reaction concentration in DMSO or any other suitable solvent as stock solutions. These stock solutions were then diluted in the same solvent. Eight glass test tubes (13×100 mm) were placed in a 25° C. water bath. To each test tube was added 950 μL of reaction buffer (0.1 M Tris-HCl, pH 8.0, containing 5 mM EDTA, and 2 mM phenol), 10 μL of 100 µM heme solution, and 10 μL (5 units) of either human COX-1 or COX-2 enzyme and the resulting mixture was incubated for 2 minutes. Twenty μL of the solvent was added to one tube (100% initial activity or solvent control) and 20 μL of each dilution of the test compound was added to one tube each. Each tube was vortexed immediately after the addition. The enzyme was incubated with the inhibitor for 20 minutes at 25° C. The enzymatic reaction was then initiated by the addition of 10 μL of freshly prepared 10 mM arachidonic acid (neutralized with KOH), vortexed and then incubated for 2 minutes (or, in some cases as indicated, 30 seconds) at 37° C. The reaction was terminated by the addition of 50 μL of 1 M HCl, vortexed and placed at room temperature. One hundred μL of a saturated stannous chloride solution (50 mg/mL of 0.1 M HCl) was added and the reaction mixture was allowed to stand at room temperature for at least 5 minutes.
The prostaglandins (PG) produced in the reactions were assayed, after a 2,000-fold dilution, using the Prostaglandin Screening EIA Kit (Cayman Chemical, Ann Arbor, Mich.). The assay contains an antibody with broad specificity for all the prostaglandin families (PGF, PGE, PGD, and thromboxane B-type) synthesized in the COX-1/COX-2 reactions. The synthesized prostaglandin competes with a PG-tagged acetylcholine esterase tracer for binding to the PG antibody. Binding of synthesized PG lowers the colorimetric development of the Ellman's Reagent (computed as %B/B0). The actual amount of synthesized PG was interpolated from a standard curve using known amounts of supplied prostaglandin E2 (PGE2) (PGE2 concentration vs. %B/B0). The data generated were the mean±standard deviation of triplicate wells in the EIA for a single reaction at a given inhibitor concentration.

COX-1, sequence (P23219 24-599): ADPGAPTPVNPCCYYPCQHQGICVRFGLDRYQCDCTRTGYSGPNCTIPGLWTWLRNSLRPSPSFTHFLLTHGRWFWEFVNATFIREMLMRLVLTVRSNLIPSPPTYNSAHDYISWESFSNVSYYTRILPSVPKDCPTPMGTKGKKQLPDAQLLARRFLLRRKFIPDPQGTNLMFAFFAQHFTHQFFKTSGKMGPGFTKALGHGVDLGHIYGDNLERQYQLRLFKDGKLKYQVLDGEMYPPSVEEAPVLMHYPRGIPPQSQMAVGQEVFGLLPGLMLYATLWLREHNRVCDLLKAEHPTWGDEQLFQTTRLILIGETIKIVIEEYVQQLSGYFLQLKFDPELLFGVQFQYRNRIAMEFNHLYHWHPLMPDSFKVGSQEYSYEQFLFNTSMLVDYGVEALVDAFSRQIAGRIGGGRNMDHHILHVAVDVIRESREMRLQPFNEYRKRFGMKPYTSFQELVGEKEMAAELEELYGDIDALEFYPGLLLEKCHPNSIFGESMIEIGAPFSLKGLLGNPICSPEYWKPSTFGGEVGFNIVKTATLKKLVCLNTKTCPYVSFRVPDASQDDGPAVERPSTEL

Compound	COX-1 Inhibition (% at 100 μM) [1] [%]	COX-2 Inhibition (% at 10 μM) [2] [%]
CS(=O)(=O)c1ccc(-c2cc3c(cc2CC2CCCCC2)OCO3)cc1 [Example 1e, 1-(6-(Cyclohexylmethyl)(2-H-benzo(3,4-d)1,3-dioxolen-5-yl))-4-(methylsulfonyl) benzene]	40	100
CS(=O)(=O)c1ccc(-c2cc3c(cc2C(=O)c2ccccc2)OCO3)cc1 [Example 3d, 6-(4-(Methylsulfonyl)phenyl)(2H-benzo(d)1,3-dioxolan-5-yl) phenyl ketone]	75	90
CS(=O)(=O)c1ccc(-c2cc3c(cc2Cc2cccnc2)OCO3)cc1 [Example 6c, 4-(Methylsulfonyl)-1-(6-(3-pyridylmethyl)(2H-benzo(3,4-d)1,3-dioxolan-5-yl))benzene]	20	65
CS(=O)(=O)c1ccc(-c2cc3c(cc2CN2CCCCC2=O)OCO3)cc1 [Example 9c]	35	90
CS(=O)(=O)c1ccc(-c2cc3c(cc2C=C2CCCC2)OCO3)cc1 [Example 10a, 4-(6-(Cyclopentylidenemethyl)(2H-benzo(3,4-d)1,3-dioxolan-5-yl))-1-(methylsulfonyl)benzene]	70	100
CS(=O)(=O)c1ccc(-c2cc3c(cc2Cc2cc(F)cc(F)c2)OCO3)cc1 [Example 15c, 5-(1-(3′,5′-Difluorophenyl)methyl)-1,2-methylenedioxy-4-(4-methylsulfonylphenyl)benzene]	75	90

— patent publication US6825185B2, “Substituted aryl compounds as novel cyclooxygenase-2 selective inhibitors, compositions and methods of use” (NitroMed, Inc., priority 2000, dated 2004)
